Test results from patent US20090227575A1, “7H-PYRROLO[2,3-H]QUINAZOLINE COMPOUNDS, THEIR USE AS mTOR KINASE AND PI3 KINASE INHIBITORS, AND THEIR [sequence]” (Wyeth, priority 2008, published 2009).
Where two headings read alike, the source gives them in different places.

Key:
PI3K-alpha = PI3K-alpha (Homo sapiens, UniProt P42336); assay: PI3K-alpha fluorescence polarization assay; format: biochemical; conditions: read-out: PI3 Kinase α IC50
Method in brief: (§1)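 Diluted enzyme and compound (1% DMSO) reacted with diC8 PIP2 and ATP substrate in 20 mM HEPES pH 7.5, 2 mM MgCl2, 0.05% CHAPS for 30–60 min. Stopped with EDTA buffer holding 10 nM TAMRA probe and 70 nM GST-GRP. FP (mP) read after 30–90 min against zero-time and no-enzyme controls.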

PI3K-gamma = PI3K-gamma (Homo sapiens, UniProt P48736); assay: PI3K-gamma fluorescence polarization assay; format: biochemical; conditions: read-out: PI3 Kinase γ IC50
PI3K-gamma, sequence (P48736 whole entry, species assumed): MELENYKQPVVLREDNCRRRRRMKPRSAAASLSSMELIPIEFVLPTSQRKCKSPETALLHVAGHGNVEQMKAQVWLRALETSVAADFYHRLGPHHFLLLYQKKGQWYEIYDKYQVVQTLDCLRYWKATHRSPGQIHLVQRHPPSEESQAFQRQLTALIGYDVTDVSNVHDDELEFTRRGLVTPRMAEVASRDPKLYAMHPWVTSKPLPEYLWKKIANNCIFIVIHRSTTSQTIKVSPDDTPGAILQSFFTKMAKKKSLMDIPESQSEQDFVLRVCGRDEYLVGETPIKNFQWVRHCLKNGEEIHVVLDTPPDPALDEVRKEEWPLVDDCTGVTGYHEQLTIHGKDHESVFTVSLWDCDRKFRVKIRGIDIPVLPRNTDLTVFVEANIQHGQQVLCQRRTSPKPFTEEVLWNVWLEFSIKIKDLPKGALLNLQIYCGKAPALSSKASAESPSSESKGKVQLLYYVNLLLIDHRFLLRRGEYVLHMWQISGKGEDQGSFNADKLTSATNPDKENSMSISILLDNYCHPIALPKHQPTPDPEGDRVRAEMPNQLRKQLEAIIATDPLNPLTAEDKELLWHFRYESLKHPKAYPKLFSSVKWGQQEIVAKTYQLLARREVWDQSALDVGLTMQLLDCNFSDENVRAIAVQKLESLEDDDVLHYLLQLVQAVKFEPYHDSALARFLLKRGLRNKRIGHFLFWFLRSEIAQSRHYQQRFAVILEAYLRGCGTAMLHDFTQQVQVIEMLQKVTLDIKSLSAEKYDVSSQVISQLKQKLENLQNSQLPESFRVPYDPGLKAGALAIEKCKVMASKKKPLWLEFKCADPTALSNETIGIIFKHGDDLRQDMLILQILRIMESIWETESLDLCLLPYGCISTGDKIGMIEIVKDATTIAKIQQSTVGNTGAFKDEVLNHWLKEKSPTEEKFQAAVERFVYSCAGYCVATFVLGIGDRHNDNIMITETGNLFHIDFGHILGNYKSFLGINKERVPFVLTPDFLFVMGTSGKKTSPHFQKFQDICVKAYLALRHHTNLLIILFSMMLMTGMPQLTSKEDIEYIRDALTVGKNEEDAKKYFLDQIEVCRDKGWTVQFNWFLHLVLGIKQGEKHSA
Method in brief: as §1

human SMG-1 (hSMG-1) = human SMG-1 (hSMG-1) (Homo sapiens, UniProt Q96Q15); assay: hSMG-1 kinase assay (DELFIA); format: biochemical; conditions: read-out: hSMG1 IC50
Human mTOR [1] = biological target: T1, Human mTOR (Homo sapiens, UniProt P42345); assay: mTOR kinase assay (DELFIA format, purified enzyme); format: biochemical; set-up: FLAG; conditions: read-out: TOR Kinase IC50
hSMG-1 = hSMG-1 (Homo sapiens, UniProt Q96Q15); conditions: read-out: hSMG-1 kinase activity IC50; cited from earlier work
[2] = system: human tumor xenograft models; conditions: cited from earlier work
Human mTOR [3] = biological target: T1, Human mTOR; conditions: read-out: mTOR enzymes IC50; cited from earlier work
[4] = system: human prostate LNCap tumor cell line; assay: In vitro cell culture growth assay (MTS), LNCap; format: cell-based; conditions: 72 h, three days after drug treatment
Description: (§2) Cell Lines used are human prostate LNCap and human breast MDA468 tumor cell lines. Cells are plated in 96-well culture plates at approximately 3000 cells per well. […] Three days after drug treatment, viable cell densities are determined by cell mediated metabolic conversion of the dye MTS, a well-established indicator of cell proliferation in vitro. Cell growth assays are performed using kits purchased from Promega Corporation (Madison, Wis.), following the protocol provided by the vendor. Measuring absorbance at 490 nm generates MTS assay results. Compound effect on cell proliferation is assessed relative to untreated control cell growth.

[5] = system: human breast MDA468 tumor cell line; assay: In vitro cell culture growth assay (MTS), MDA468; format: cell-based; conditions: 72 h, three days after drug treatment
Description: as §2

[6] = system: acute lymphoblastic leukemia xenograft; conditions: NOS/SCID xenograft mouse model of acute lymphoblastic leukemia; cited from earlier work

PI3K-alpha, sequence (P42336 whole entry, species assumed): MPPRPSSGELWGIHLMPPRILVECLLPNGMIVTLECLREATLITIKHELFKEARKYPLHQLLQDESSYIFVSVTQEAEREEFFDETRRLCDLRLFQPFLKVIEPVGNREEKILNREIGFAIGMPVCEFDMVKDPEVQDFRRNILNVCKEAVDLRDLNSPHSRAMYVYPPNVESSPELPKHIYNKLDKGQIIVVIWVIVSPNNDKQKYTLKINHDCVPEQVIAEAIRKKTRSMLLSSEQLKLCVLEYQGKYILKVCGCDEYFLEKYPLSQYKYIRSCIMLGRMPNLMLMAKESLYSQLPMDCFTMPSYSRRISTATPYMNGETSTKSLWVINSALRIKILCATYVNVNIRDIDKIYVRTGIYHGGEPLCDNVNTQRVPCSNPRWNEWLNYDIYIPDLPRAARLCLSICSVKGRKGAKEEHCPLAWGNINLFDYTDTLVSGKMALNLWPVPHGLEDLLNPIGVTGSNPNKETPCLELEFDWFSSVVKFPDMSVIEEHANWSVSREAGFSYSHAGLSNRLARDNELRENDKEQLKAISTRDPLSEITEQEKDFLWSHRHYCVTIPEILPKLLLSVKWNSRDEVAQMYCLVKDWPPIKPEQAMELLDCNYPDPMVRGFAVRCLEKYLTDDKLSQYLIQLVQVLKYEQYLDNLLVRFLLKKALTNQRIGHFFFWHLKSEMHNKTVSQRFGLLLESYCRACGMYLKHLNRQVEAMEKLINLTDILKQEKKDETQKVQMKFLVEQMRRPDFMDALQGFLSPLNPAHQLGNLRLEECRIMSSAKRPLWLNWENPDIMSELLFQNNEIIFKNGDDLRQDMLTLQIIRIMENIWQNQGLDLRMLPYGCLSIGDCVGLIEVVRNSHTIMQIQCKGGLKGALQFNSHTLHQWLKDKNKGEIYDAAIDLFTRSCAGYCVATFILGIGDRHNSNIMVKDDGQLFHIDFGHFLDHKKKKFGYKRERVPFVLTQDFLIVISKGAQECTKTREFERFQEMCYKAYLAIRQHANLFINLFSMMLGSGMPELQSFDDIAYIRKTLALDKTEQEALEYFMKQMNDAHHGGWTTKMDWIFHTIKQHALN
PI3K-alpha, sequence (P27986 whole entry partner, species assumed): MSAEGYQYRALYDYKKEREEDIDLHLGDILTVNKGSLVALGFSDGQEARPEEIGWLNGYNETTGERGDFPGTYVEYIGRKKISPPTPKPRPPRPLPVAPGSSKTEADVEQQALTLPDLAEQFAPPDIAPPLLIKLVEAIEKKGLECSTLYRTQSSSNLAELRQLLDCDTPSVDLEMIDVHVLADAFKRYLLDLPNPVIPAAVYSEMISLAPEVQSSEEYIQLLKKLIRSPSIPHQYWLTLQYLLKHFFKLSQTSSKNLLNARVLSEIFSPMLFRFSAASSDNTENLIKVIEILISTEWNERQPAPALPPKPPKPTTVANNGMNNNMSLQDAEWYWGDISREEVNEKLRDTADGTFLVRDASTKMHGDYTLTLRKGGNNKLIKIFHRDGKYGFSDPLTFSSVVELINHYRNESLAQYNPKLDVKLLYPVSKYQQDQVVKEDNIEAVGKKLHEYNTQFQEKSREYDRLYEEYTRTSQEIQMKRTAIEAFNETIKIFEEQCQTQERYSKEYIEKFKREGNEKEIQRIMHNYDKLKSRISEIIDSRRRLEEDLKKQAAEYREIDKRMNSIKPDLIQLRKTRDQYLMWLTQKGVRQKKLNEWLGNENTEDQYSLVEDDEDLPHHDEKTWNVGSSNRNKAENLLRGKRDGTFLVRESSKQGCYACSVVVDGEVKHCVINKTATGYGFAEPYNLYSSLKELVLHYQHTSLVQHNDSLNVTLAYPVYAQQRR

Structure (SMILES): CNC(=O)Nc1ccc(-c2nc(N3CCOCC3)c3ccc4c(ccn4CCN(C)C)c3n2)cc1 [Example 113, 1-(4-{7-[2-(dimethylamino)ethyl]-4-morpholin-4-yl-7H-pyrrolo[2,3-h]quinazolin-2-yl}phenyl)-3-methylurea]
- IC50 (PI3K-alpha): 427 nM
- IC50 (PI3K-gamma): 3090 nM
- IC50 (human SMG-1 (hSMG-1)): 490 nM
- IC50 (Human mTOR [1]): 67 nM

Structure (SMILES): Cn1c(=O)c2c(ncn2C)n(C)c1=O [caffeine]
- IC50 (hSMG-1): 300000 nM

Structure (SMILES): COC[C@H]1OC(=O)c2coc3c2[C@@]1(C)C1=C(C3=O)[C@@H]2CCC(=O)[C@@]2(C)C[C@H]1OC(C)=O [Wortmannin]
- IC50 (hSMG-1): ~60 nM

Structure (SMILES): CN(C)CCn1ccc2c3nc(-c4ccc(NC(=O)Nc5cccnc5)cc4)nc(N4CCOCC4)c3ccc21 [Example 111, 1-(4-{7-[2-(dimethylamino)ethyl]-4-morpholin-4-yl-7H-pyrrolo[2,3-h]quinazolin-2-yl}phenyl)-3-pyridin-3-ylurea]
- IC50 (PI3K-alpha): 118 nM
- IC50 (PI3K-gamma): 860 nM
- IC50 (human SMG-1 (hSMG-1)): 290 nM
- IC50 (Human mTOR [1]): 15 nM

Structure (SMILES): FC(F)c1nc2ccccc2n1-c1nc(N2CCOCC2)nc(N2CCOCC2)n1 [ZSTK474, 2-(2-difluoromethylbenzoimidazol-1-yl)-4,6-dimorpholino-1,3,5-triazine]
- tumor growth inhibition ([2]; chronic oral administration, 400 mg/kg, A549, PC-3, WiDr): completely inhibited growth
- IC50 (Human mTOR [3]): > 10000 nM

Structure (SMILES): Cn1c(=O)n(-c2ccc(C(C)(C)C#N)cc2)c2c3cc(-c4cnc5ccccc5c4)ccc3ncc21 [NVP-BEZ-235, 2-methyl-2-(4-(3-methyl-2-oxo-8-(quinolin-3-yl)-2,3-dihydro-1H-imidazo[4,5-c]quinolin-1-yl)phenyl)propanenitrile]
- activity against human tumor models ([2]; prostrate (PC-3) and glioblastoma (U-87)): demonstrated activity

Structure (SMILES): CS(=O)(=O)n1ccc2c3nc(-c4ccc(NC(=O)Nc5cccnc5)cc4)nc(N4CCOCC4)c3ccc21 [Example 85, 1-{4-[7-(methylsulfonyl)-4-morpholin-4-yl-7H-pyrrolo[2,3-h]quinazolin-2-yl]phenyl}-3-pyridin-3-ylurea]
- IC50 (PI3K-alpha): 22 nM
- IC50 (PI3K-gamma): 142 nM
- IC50 [4]: 48 nM
- IC50 [5]: 70 nM
- IC50 (human SMG-1 (hSMG-1)): 160 nM

Structure (SMILES): CNC(=O)Nc1ccc(-c2nc(N3CCOCC3)c3ccc4c(ccn4S(C)(=O)=O)c3n2)cc1 [Example 110, 1-methyl-3-{4-[7-(methylsulfonyl)-4-morpholin-4-yl-7H-pyrrolo[2,3-h]quinazolin-2-yl]phenyl}urea]
- IC50 (PI3K-alpha): 95 nM
- IC50 (PI3K-gamma): 1910 nM
- IC50 [4]: 880 nM
- IC50 [5]: 1700 nM
- IC50 (human SMG-1 (hSMG-1)): 43 nM
- IC50 (Human mTOR [1]): 2 nM

Structure (SMILES): CCNC(=O)Nc1ccc(-c2nc(N3CCOCC3)c3ccc4c(ccn4S(C)(=O)=O)c3n2)cc1 [Example 89, 1-ethyl-3-{4-[7-(methylsulfonyl)-4-morpholin-4-yl-7H-pyrrolo[2,3-h]quinazolin-2-yl]phenyl}urea]
- IC50 [4]: 690 nM
- IC50 [5]: 1900 nM
- IC50 (human SMG-1 (hSMG-1)): 200 nM

Structure (SMILES): CCCNC(=O)Nc1ccc(-c2nc(N3CCOCC3)c3ccc4c(ccn4S(C)(=O)=O)c3n2)cc1 [Example 121, 1-{4-[7-(methylsulfonyl)-4-morpholin-4-yl-7H-pyrrolo[2,3-h]quinazolin-2-yl]phenyl}-3-propylurea]
- IC50 [4]: 2000 nM
- IC50 [5]: 30000 nM
- IC50 (human SMG-1 (hSMG-1)): 140 nM
- IC50 (Human mTOR [1]): 26 nM

Structure (SMILES): COCCNC(=O)Nc1ccc(-c2nc(N3CCOCC3)c3ccc4c(ccn4C)c3n2)cc1 [Example 101, 1-(2-methoxyethyl)-3-[4-(7-methyl-4-morpholin-4-yl-7H-pyrrolo[2,3-h]quinazolin-2-yl)phenyl]urea]
- IC50 (human SMG-1 (hSMG-1)): > 20000 nM
- IC50 (Human mTOR [1]): 1800 nM

Structure (SMILES): Oc1cccc(-c2nc(N3CCOCC3)c3oc4ncccc4c3n2)c1 [PI103, 3-(4-(4-morpholinyl)pyrido[3′,2′:4,5]furo[3,2-d]pyrimidin-2-yl)phenol]
- activity against human tumor models ([2]; I.P. dosing in mice, U87MG, PC3, MDA-MB-468, MDA-MB-435, HCT 116, SKOV3, IGROV-1): demonstrated activity

Structure (SMILES): CCCC(=O)Nc1ccc(-c2nc(N3CCOCC3)c3ccc4c(ccn4CCN(C)C)c3n2)cc1 [Example 97, N-(4-{7-[2-(dimethylamino)ethyl]-4-morpholin-4-yl-7H-pyrrolo[2,3-h]quinazolin-2-yl}phenyl)butanamide]
- IC50 (human SMG-1 (hSMG-1)): > 20000 nM
- IC50 (Human mTOR [1]): 6200 nM

Structure (SMILES): CO[C@H]1C[C@@H]2CC[C@@H](C)[C@@](O)(O2)C(=O)C(=O)N2CCCC[C@H]2C(=O)O[C@H]([C@H](C)C[C@@H]2CC[C@@H](OC(=O)C(C)(CO)CO)[C@H](OC)C2)CC(=O)[C@H](C)/C=C(\C)[C@@H](O)[C@@H](OC)C(=O)[C@H](C)C[C@H](C)/C=C/C=C/C=C/1C [Torisel]
- activity in xenograft mouse model [6]: active

Structure (SMILES): Cn1ccc2c3nc(-c4ccc(NC(=O)NC5CCCC5)cc4)nc(N4CCOCC4)c3ccc21 [Example 105, 1-cyclopentyl-3-[4-(7-methyl-4-morpholin-4-yl-7H-pyrrolo[2,3-h]quinazolin-2-yl)phenyl]urea]
- IC50 (human SMG-1 (hSMG-1)): > 20000 nM
- IC50 (Human mTOR [1]): 2050 nM

Structure (SMILES): CCC(=O)Nc1cccc(-c2nc(N3CCOCC3)c3ccc4c(ccn4C)c3n2)c1 [Example 129, N-[3-(7-methyl-4-morpholin-4-yl-7H-pyrrolo[2,3-h]quinazolin-2-yl)phenyl]propanamide]
- IC50 (human SMG-1 (hSMG-1)): > 20000 nM
- IC50 (Human mTOR [1]): 1500 nM
